We go through 25 compounds from patent US20250188069A1, “COMPOUNDS AND METHODS FOR DEGRADING CASEIN KINASE 1 ALPHA” (PIN THERAPEUTICS, INC., priority 2022, published 2025).

Where a name gives a salt, the structure may show the parent alone.

One assay has as its system MV-4-11 cells. Kind of assay: AML cell viability assay (RealTime-Glo). The conditions noted are these: Homo sapiens, MV4-11; IC50 class; MV-4-11 cells, RealTime-Glo after 44 hrs of treatment (TABLE 5); read-out: Cell viability classification. Type of assay: cell-based.
For another assay, the target named is CK1α (Homo sapiens, UniProt P48729+Q96SW2). Kind of assay: CK1α HiBiT assay in CK1a_HiBiT_Jurkat cells. In kind it is cell-based. The settings on record: DC50 class, 16 hours, Nano-Glo HiBiT Lytic Detection, read-out: CK1α degradation classification. The procedure:
CK1a_HiBiT_Jurkat cells were culture in RPMI 1640 medium (Gibco, 11875093) with 10% FBS under standard tissue culture conditions. Briefly, Compounds of the present disclosure was added to 30,000 cells in a white 96-well plate (9-point dose response, top concentration […], half-log serial dilution, final DMSO concentration 0.5%) and incubated for 16 hours. CK1a level was determined in along with the Nano-Glo HiBiT Lytic Detection system [Promega N3050] with final concentration of 1 x. The luminescence was normalized to that of DMSO-treated samples. DC50 values were obtained using three-parameter non-linear regressions using Prism (GraphPad). The compounds are classified based on DC50 values as follows. • A: DC50 is less than or equal to 1×10^−7; • B: DC50 is greater than 1×10^−7 & less than or equal to 1×10^−6; • C: DC50 is greater than 1×10^−6; • NA: not calculated (no activity detected, <25% viability reduction at 1 uM)

Sequence of CK1α (P48729 whole entry): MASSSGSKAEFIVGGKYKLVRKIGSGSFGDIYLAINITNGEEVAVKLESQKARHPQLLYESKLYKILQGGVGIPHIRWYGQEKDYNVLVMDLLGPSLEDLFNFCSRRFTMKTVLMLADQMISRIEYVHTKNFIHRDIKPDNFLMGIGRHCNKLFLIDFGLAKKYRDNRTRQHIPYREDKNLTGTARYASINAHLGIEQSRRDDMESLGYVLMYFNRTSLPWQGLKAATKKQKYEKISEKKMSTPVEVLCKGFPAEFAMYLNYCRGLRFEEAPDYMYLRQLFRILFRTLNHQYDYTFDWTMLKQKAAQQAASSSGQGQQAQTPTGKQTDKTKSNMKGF
Sequence of CK1α (Q96SW2 whole entry): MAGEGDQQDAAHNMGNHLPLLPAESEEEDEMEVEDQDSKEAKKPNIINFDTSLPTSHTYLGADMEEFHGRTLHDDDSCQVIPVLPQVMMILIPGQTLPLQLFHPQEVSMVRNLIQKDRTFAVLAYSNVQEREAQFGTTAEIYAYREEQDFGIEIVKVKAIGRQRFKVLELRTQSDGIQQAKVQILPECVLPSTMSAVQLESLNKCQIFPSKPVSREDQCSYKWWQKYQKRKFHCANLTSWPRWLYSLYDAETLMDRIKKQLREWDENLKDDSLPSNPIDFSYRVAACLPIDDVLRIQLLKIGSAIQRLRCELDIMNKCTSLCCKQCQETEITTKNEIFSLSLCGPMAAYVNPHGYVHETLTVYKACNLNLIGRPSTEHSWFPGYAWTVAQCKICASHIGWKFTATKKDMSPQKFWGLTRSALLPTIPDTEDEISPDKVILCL
Sequence of CK1α (Q16531 whole entry partner): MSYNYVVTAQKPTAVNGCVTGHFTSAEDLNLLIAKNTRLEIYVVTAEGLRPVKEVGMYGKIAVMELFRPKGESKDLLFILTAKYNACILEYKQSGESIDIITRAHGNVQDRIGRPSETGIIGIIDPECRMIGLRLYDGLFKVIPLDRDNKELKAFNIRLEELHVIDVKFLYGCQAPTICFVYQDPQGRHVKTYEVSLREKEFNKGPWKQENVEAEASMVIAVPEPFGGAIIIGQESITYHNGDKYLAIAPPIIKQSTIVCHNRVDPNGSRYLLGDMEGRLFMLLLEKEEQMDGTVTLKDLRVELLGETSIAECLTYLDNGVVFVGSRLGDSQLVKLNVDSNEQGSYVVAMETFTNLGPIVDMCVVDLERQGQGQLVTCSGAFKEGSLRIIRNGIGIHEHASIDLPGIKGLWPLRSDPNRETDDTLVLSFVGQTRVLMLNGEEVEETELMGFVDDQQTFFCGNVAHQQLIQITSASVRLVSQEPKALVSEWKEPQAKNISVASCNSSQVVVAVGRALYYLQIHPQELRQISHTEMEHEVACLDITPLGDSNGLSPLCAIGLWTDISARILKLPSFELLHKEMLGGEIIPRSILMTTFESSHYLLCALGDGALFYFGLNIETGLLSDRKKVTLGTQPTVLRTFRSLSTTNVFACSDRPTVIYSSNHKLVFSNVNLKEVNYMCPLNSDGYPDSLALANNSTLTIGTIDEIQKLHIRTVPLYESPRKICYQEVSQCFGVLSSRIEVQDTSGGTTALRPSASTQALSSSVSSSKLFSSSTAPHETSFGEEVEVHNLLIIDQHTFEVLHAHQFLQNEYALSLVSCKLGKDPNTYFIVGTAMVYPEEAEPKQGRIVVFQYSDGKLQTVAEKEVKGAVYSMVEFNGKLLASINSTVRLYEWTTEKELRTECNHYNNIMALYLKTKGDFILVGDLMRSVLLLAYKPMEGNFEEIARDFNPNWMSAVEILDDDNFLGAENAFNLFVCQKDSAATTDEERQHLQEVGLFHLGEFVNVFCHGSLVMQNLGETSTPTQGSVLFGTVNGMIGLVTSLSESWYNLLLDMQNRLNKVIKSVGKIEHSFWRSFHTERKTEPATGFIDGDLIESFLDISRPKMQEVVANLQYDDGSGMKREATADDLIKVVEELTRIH

With `O=C1CCC(N2Cc3c(cccc3N(CC3CC4(CCC4)C3)[C@H]3CC[C@H](NCC4(C(F)(F)F)CC4)CC3)C2=O)C(=O)N1` (some centres unmarked) [Compound 656, 3-(1-oxo-4-{[(1r,4r)-4-({[1-(trifluoromethyl)cyclopropyl]methyl}amino)cyclohexyl]({spiro[3.3]heptan-2-ylmethyl})amino}-3H-isoindol-2-yl)piperidine-2,6-dione; trifluoroacetic acid], the IC50 with MV-4-11 cells was 100 to 1000 nM. Moreover, the DC50 at CK1α fell in the range of 100 to 1000 nM.
In the case of `CC1(C)CC(CN(c2cccc3c2CN(C2CCC(=O)NC2=O)C3=O)[C@H]2CC[C@H](NCC3(C(F)(F)F)CC3)CC2)C1` (some centres unmarked) [Compound 657, 3-(4-{[(3,3-dimethylcyclobutyl)methyl][(1r,4r)-4-({[1-(trifluoromethyl)cyclopropyl]methyl}amino)cyclohexyl]amino}-1-oxo-3H-isoindol-2-yl)piperidine-2,6-dione; bis(trifluoroacetic acid)], in the assay on MV-4-11 cells, the IC50 is over 1000 nM. The DC50 on CK1α lay in the range of 100 to 1000 nM.
Take `O=C1CCC(N2Cc3c(cc(F)cc3N(CCC3CC3)[C@H]3CC[C@H](NCC4(C(F)(F)F)CC4)CC3)C2=O)C(=O)N1` (some centres unmarked) [Compound 658, 3-{4-[(2-cyclopropylethyl)[(1r,4r)-4-({[1-(trifluoromethyl)cyclopropyl]methyl}amino)cyclohexyl]amino]-6-fluoro-1-oxo-3H-isoindol-2-yl}piperidine-2,6-dione]: the IC50 in the assay with MV-4-11 cells was 100 to 1000 nM. In addition, the DC50 on CK1α is at most 100 nM.
For `O=C1CCC(N2Cc3c(cc(F)cc3N(CCC3CC3)[C@H]3CC[C@@H](NCC4(C(F)(F)F)CC4)CC3)C2=O)C(=O)N1` (some centres unmarked) [Compound 658A, 3-{4-[(2-cyclopropylethyl)[(1s,4s)-4-({[1-(trifluoromethyl)cyclopropyl]methyl}amino)cyclohexyl]amino]-6-fluoro-1-oxo-3H-isoindol-2-yl}piperidine-2,6-dione] the same measures were over 1000 nM and 100 to 1000 nM.
For `NC(=O)C12CC(N(CCC3CC3)c3cccc4c3CN(C3CCC(=O)NC3=O)C4=O)(C1)C2` (centres unmarked) [Compound 659, 3-[(2-cyclopropylethyl)[2-(2,6-dioxopiperidin-3-yl)-1-oxo-3H-isoindol-4-yl]amino]bicyclo[1.1.1]pentane-1-carboxamide] the same measures were 100 to 1000 nM and at most 100 nM.
For `NCC12CC(N(CCC3CC3)c3cccc4c3CN(C3CCC(=O)NC3=O)C4=O)(C1)C2` (centres unmarked) [Compound 660, 3-(4-{[3-(aminomethyl)bicyclo[1.1.1]pentan-1-yl](2-cyclopropylethyl)amino}-1-oxo-3H-isoindol-2-yl)piperidine-2,6-dione] the same measures were 100 to 1000 nM and at most 100 nM.
As to `O=C1CCC(N2Cc3c(cccc3N(CCC3CC3)[C@H]3CC[C@H](NCc4ncco4)CC3)C2=O)C(=O)N1` (some centres unmarked) [Compound 662], the IC50 in the assay with MV-4-11 cells lay within 100 to 1000 nM. At CK1α, the DC50 was at most 100 nM.
For the compound `O=C1CCC(N2Cc3c(cccc3N(CCC3CC3)[C@H]3CC[C@H](NCc4nccs4)CC3)C2=O)C(=O)N1` (some centres unmarked) [Compound 663, 3-{4-[(2-cyclopropylethyl)[(1r,4r)-4-[(1,3-thiazol-2-ylmethyl)amino]cyclohexyl]amino]-1-oxo-3H-isoindol-2-yl}piperidine-2,6-dione], the IC50 in the assay on MV-4-11 cells fell in the range of 100 to 1000 nM. Besides, the DC50 on CK1α was at most 100 nM.
The like results for `O=C1CCC(N2Cc3c(cccc3N(CCC3CC3)[C@H]3CC[C@H](NCc4ccc(C(F)(F)F)cn4)CC3)C2=O)C(=O)N1` (some centres unmarked) [Compound 664, 3-{4-[(2-cyclopropylethyl)[(1r,4r)-4-({[5-(trifluoromethyl)pyridin-2-yl]methyl}amino)cyclohexyl]amino]-1-oxo-3H-isoindol-2-yl}piperidine-2,6-dione formic acid] were, in that order, 100 to 1000 nM and at most 100 nM.
Turning to `O=C1CCC(N2Cc3c(cccc3N(CCC3CC3)[C@H]3CC[C@H](NCc4ccccn4)CC3)C2=O)C(=O)N1` (some centres unmarked) [Compound 665, 3-{4-[(2-cyclopropylethyl)[(1r,4r)-4-[(pyridin-2-ylmethyl)amino]cyclohexyl]amino]-1-oxo-3H-isoindol-2-yl}piperidine-2,6-dione; formic acid], the IC50 with MV-4-11 cells lay within 100 to 1000 nM. The DC50 at CK1α was at most 100 nM.
The like results for `O=C1CCC(N2Cc3c(cccc3N(CCC3CC3)[C@H]3CC[C@H](NCC4CCCO4)CC3)C2=O)C(=O)N1` (some centres unmarked) [Compound 666, 3-{4-[(2-cyclopropylethyl)[(1r,4r)-4-[(oxolan-2-ylmethyl)amino]cyclohexyl]amino]-1-oxo-3H-isoindol-2-yl}piperidine-2,6-dione] were, in that order, under 100 nM and at most 100 nM.
The like results for `CN(C)[C@H]1CC[C@H](N(CCC2CC2)c2cccc3c2CN(C2CCC(=O)NC2=O)C3=O)CC1` (some centres unmarked) [Compound 668, 3-{4-[(2-cyclopropylethyl)[(1r,4r)-4-(dimethylamino)cyclohexyl]amino]-1-oxo-3H-isoindol-2-yl}piperidine-2,6-dione] were, in that order, under 100 nM and at most 100 nM.
For `O=C1CCC(N2Cc3c(cccc3N(CCC3CC3)[C@H]3CC[C@H](N4CCCC4)CC3)C2=O)C(=O)N1` (some centres unmarked) [Compound 669] the same measures were 100 to 1000 nM and at most 100 nM.
Regarding `O=C1CCC(N2Cc3c(cccc3N(CCC3CC3)[C@H]3CC[C@H](N4CCC(F)(F)C4)CC3)C2=O)C(=O)N1` (some centres unmarked) [Compound 670], in the assay on MV-4-11 cells, the IC50 fell in the range of 100 to 1000 nM. Besides, the DC50 on CK1α is at most 100 nM.
For `O=C1CCC(N2Cc3c(cccc3N(CCC3CC3)[C@H]3CC[C@H](N4CCC(F)C4)CC3)C2=O)C(=O)N1` (some centres unmarked) [Compound 671, 3-{4-[(2-cyclopropylethyl)[(1r,4r)-4-(3-fluoropyrrolidin-1-yl)cyclohexyl]amino]-1-oxo-3H-isoindol-2-yl}piperidine-2,6-dione], the IC50 in the assay on MV-4-11 cells was in the range of 100 to 1000 nM. Besides, the DC50 on CK1α was at most 100 nM.
In the case of `O=C1CCC(N2Cc3c(cccc3N(CCC3CC3)[C@H]3CC[C@H](N4CCC(C(F)(F)F)C4)CC3)C2=O)C(=O)N1` (some centres unmarked) [Compound 672, 3-{4-[(2-cyclopropylethyl)[(1r,4r)-4-[3-(trifluoromethyl)pyrrolidin-1-yl]cyclohexyl]amino]-1-oxo-3H-isoindol-2-yl}piperidine-2,6-dione; trifluoroacetic acid], the IC50 with MV-4-11 cells lay within 100 to 1000 nM. Moreover, at CK1α, the DC50 is at most 100 nM.
For `O=C1CCC(N2Cc3c(cccc3N(CCC3CC3)[C@H]3CC[C@H](N4CC(C(F)(F)F)C4)CC3)C2=O)C(=O)N1` (some centres unmarked) [Compound 673] the same measures were over 1000 nM and at most 100 nM.
For `O=C1CCC(N2Cc3c(cccc3N(CCC3CC3)[C@H]3CC[C@H](N4CCOCC4)CC3)C2=O)C(=O)N1` (some centres unmarked) [Compound 674, 3-{4-[(2-cyclopropylethyl)[(1r,4r)-4-(morpholin-4-yl)cyclohexyl]amino]-1-oxo-3H-isoindol-2-yl}piperidine-2,6-dione], the IC50 in the assay with MV-4-11 cells was under 100 nM. In addition, the DC50 at CK1α was at most 100 nM.
Take `O=C1CCC(N2Cc3c(cccc3N(CCC3CC3)[C@H]3CC[C@H](N[C@H]4CC[C@@H]4C(F)(F)F)CC3)C2=O)C(=O)N1` (stereo partly drawn) [Compound 675, 3-{4-[(2-cyclopropylethyl)[(1r,4r)-4-{[(1S,2S)-2-(trifluoromethyl)cyclobutyl]amino}cyclohexyl]amino]-1-oxo-3H-isoindol-2-yl}piperidine-2,6-dione; bis(trifluoroacetic acid)]: the IC50 with MV-4-11 cells lay within 100 to 1000 nM. Also, the DC50 at CK1α is at most 100 nM.
The like results for `O=C1CCC(N2Cc3c(cccc3N(CCC3CC3)C3CCC(N[C@H]4C[C@@H]4C(F)(F)F)CC3)C2=O)C(=O)N1` (stereo partly drawn) [Compound 678, 3-(4-((2-cyclopropylethyl)(4-(((1S,2S)-2-(trifluoromethyl)cyclopropyl)amino)cyclohexyl)amino)-1-oxoisoindolin-2-yl)piperidine-2,6-dione Trifluoroacetate] were, in that order, 100 to 1000 nM and 100 to 1000 nM.
The like results for `COCCN(C)[C@H]1CC[C@H](N(CCC2CC2)c2cccc3c2CN(C2CCC(=O)NC2=O)C3=O)CC1` (some centres unmarked) [Compound 680] were, in that order, 100 to 1000 nM and at most 100 nM.
The like results for `CN(CCCC(F)(F)F)[C@H]1CC[C@H](N(CCC2CC2)c2cccc3c2CN(C2CCC(=O)NC2=O)C3=O)CC1` (some centres unmarked) [Compound 681, 3-{4-[(2-cyclopropylethyl)[(1r,4r)-4-[methyl(4,4,4-trifluorobutyl)amino]cyclohexyl]amino]-1-oxo-3H-isoindol-2-yl}piperidine-2,6-dione] were, in that order, under 100 nM and at most 100 nM.
Consider `CN(CCC(F)(F)F)[C@H]1CC[C@H](N(CCC2CC2)c2cccc3c2CN(C2CCC(=O)NC2=O)C3=O)CC1` (some centres unmarked) [Compound 682], for which the IC50 with MV-4-11 cells is under 100 nM. Also, the DC50 at CK1α was at most 100 nM.
For `CN(CCC(F)F)[C@H]1CC[C@H](N(CCC2CC2)c2cccc3c2CN(C2CCC(=O)NC2=O)C3=O)CC1` (some centres unmarked) [Compound 683, 3-(4-((2-cyclopropylethyl)((1r,4r)-4-((3,3-difluoropropyl)(methyl)amino)cyclohexyl)amino)-1-oxoisoindolin-2-yl)piperidine-2,6-dione tris(2,2,2-trifluoroacetate)] the same measures were under 100 nM and at most 100 nM.
For `O=C1CCC(N2Cc3c(cccc3N(CCC3CC3)C34CC(CNCCC(F)(F)F)(C3)C4)C2=O)C(=O)N1` (centres unmarked) [Compound 703, 3-{4-[(2-cyclopropylethyl)(3-{[(3,3,3-trifluoropropyl)amino]methyl}bicyclo[1.1.1]pentan-1-yl)amino]-1-oxo-3H-isoindol-2-yl}piperidine-2,6-dione] the same measures were 100 to 1000 nM and at most 100 nM.
